Measurements taken from US20060040871A1, “Bacterial transforming agent” (priority 2003, published 2006).
Like-named read-outs stand apart in the source and are kept apart here.

Assays:
MRSA [1] = assay: Antimicrobial plus BTA against recent clinical MRSA isolates (Table 7); type: cell-based, Staphylococcus aureus
Excerpt: The four clinical isolates were isolated from patients during the first three months of 2003. […] An intermediate MRSA has been included, as methicillin-resistance has been achieved by means other than production of PBP2a.

MRSA [2] = assay: MIC of ceftazidime or cefuroxime for MRSA grown with or without GBE (Table 2); type: cell-based, Staphylococcus aureus; conditions: for MIC of ceftazidime / MIC of cefuroxime: GBE (0.2%)
Excerpt: Importantly, the usefulness of the agents of the present invention is not limited to increasing bacterial sensitivity to methicillin.

VRE = assay: Antimicrobial plus BTA against VRE (Table 7); type: cell-based, enterococci; conditions: +BTA 1.0%
S. aureus = assay: MIC of methicillin for already sensitive S. aureus with GBE, with or without 1% human plasma (Table 6); type: cell-based, Staphylococcus aureus; conditions: for MIC of methicillin: GBE 0.00075M [0.15%]
Excerpt: As previously mentioned, a common cause of auto-infection is due to S. aureus carried on the anterior nares. […] The transforming agents of the present invention may also be used in combination with a suitable antimicrobial to eliminate nasal carriage of MSSA prior to cardiac surgery or other invasive procedures carrying a high risk of auto-infection.

[3] = system: MRSA with intermediate resistance to glycopeptides; assay: MIC of vancomycin or teicoplanin for MRSA with intermediate resistance to glycopeptides grown with GBE or NAGly (Table 4); type: cell-based, Staphylococcus aureus; conditions: GBE 0.001M; for MIC: Staphylococcus aureus
MRSA [4] = conditions: increasing concentrations of glycine in the growth medium; cited from earlier work

Work on NCC(=O)OCc1ccccc1 [GBE, Glycine Benzyl Ester] yielded an Oxacillin (antimicrobial plus BTA; quantity not named, MIC implied) (MRSA [1]; EMRSA-16, +BTA 0.01%) of 4 mg/L, a Cephalexin (antimicrobial plus BTA; quantity not named, MIC implied) (MRSA [1]; EMRSA-16, +BTA 0.1%) of 2 mg/L and an Oxacillin (antimicrobial plus BTA; quantity not named, MIC implied) (MRSA [1]; EMRSA-16, +BTA 0.1%) of 2 mg/L. The Cephalexin (antimicrobial plus BTA; quantity not named, MIC implied) (MRSA [1]; EMRSA-16, +BTA 1.0%) was 1 mg/L, the Oxacillin (antimicrobial plus BTA; quantity not named, MIC implied) (MRSA [1]; EMRSA-16, +BTA 1.0%) was 1 mg/L and the Vancomycin (antimicrobial plus BTA; quantity not named, MIC implied) (MRSA [1]; EMRSA-16, +BTA 1.0%) was 0.25 mg/L. It also gave an Oxacillin (antimicrobial plus BTA; quantity not named, MIC implied) (MRSA [1]; EMRSA-17, +BTA 0.01%) of 6 mg/L, a Cephalexin (antimicrobial plus BTA; quantity not named, MIC implied) (MRSA [1]; EMRSA-17, +BTA 0.1%) of 2 mg/L and an Oxacillin (antimicrobial plus BTA; quantity not named, MIC implied) (MRSA [1]; EMRSA-17, +BTA 0.1%) of 2 mg/L. For the same molecule, the Cephalexin (antimicrobial plus BTA; quantity not named, MIC implied) (MRSA [1]; EMRSA-17, +BTA 1.0%) was 1.5 mg/L, the Oxacillin (antimicrobial plus BTA; quantity not named, MIC implied) (MRSA [1]; EMRSA-17, +BTA 1.0%) was 1.5 mg/L and the Vancomycin (antimicrobial plus BTA; quantity not named, MIC implied) (MRSA [1]; EMRSA-17, +BTA 1.0%) was 0.25 mg/L. The Oxacillin (antimicrobial plus BTA; quantity not named, MIC implied) (MRSA [1]; I-MRSA, +BTA 0.01%) was 2 mg/L, the Cephalexin (antimicrobial plus BTA; quantity not named, MIC implied) (MRSA [1]; I-MRSA, +BTA 0.1%) was 1 mg/L and the Oxacillin (antimicrobial plus BTA; quantity not named, MIC implied) (MRSA [1]; I-MRSA, +BTA 0.1%) was 1 mg/L. The Cephalexin (antimicrobial plus BTA; quantity not named, MIC implied) (MRSA [1]; I-MRSA, +BTA 1.0%) was 0.75 mg/L, the Oxacillin (antimicrobial plus BTA; quantity not named, MIC implied) (MRSA [1]; I-MRSA, +BTA 1.0%) was 0.75 mg/L and the Vancomycin (antimicrobial plus BTA; quantity not named, MIC implied) (MRSA [1]; I-MRSA, +BTA 1.0%) was less than 0.25 mg/L. For the same molecule, the MIC of ceftazidime (MRSA [2]; CD40 (EMRSA-1)) was 4 mg/L, the MIC of cefuroxime (MRSA [2]; CD40 (EMRSA-1)) was 2 mg/L and the MIC of ceftazidime (MRSA [2]; DS09 (EMRSA-1)) was 2 mg/L. It also gave an MIC of cefuroxime (MRSA [2]; DS09 (EMRSA-1)) of 2 mg/L, an MIC of ceftazidime (MRSA [2]; E15-97 (EMRSA-15)) of 4 mg/L and an MIC of cefuroxime (MRSA [2]; E15-97 (EMRSA-15)) of 4 mg/L. For the same molecule, the MIC of ceftazidime (MRSA [2]; E16-96 (EMRSA-16)) was 2 mg/L, the MIC of cefuroxime (MRSA [2]; E16-96 (EMRSA-16)) was 4 mg/L and the MIC of ceftazidime (MRSA [2]; JF1-32 (EMRSA-1)) was 2 mg/L. For the same molecule, the MIC of cefuroxime (MRSA [2]; JF1-32 (EMRSA-1)) was 2 mg/L, the MIC of ceftazidime (MRSA [2]; MC01 (EMRSA-1)) was 2 mg/L and the MIC of cefuroxime (MRSA [2]; MC01 (EMRSA-1)) was 4 mg/L. For the same molecule, the MIC of ceftazidime (MRSA [2]; NCTC 12493) was 2 mg/L, the MIC of cefuroxime (MRSA [2]; NCTC 12493) was 4 mg/L and the MIC of ceftazidime (MRSA [2]; PS3-32 (EMRSA-1)) was 4 mg/L. The MIC of cefuroxime (MRSA [2]; PS3-32 (EMRSA-1)) was 4 mg/L, the MIC of ceftazidime (MRSA [2]; SN31 (EMRSA-1)) was 4 mg/L and the MIC of cefuroxime (MRSA [2]; SN31 (EMRSA-1)) was 4 mg/L. For the same molecule, the MIC of ceftazidime (MRSA [2]; ST11 (EMRSA-1)) was 2 mg/L, the MIC of cefuroxime (MRSA [2]; ST11 (EMRSA-1)) was 2 mg/L and the MIC of ceftazidime (MRSA [2]; SW2-32 (EMRSA-1)) was 4 mg/L. The MIC of cefuroxime (MRSA [2]; SW2-32 (EMRSA-1)) was 4 mg/L, the “transformation to ceftazidime and cefuroxime sensitivity” value (MRSA [2]; Table 2) was “transforms the MRSA tested to ceftazidime and cefuroxime sensitivity” and the Vancomycin (antimicrobial plus BTA; quantity not named, MIC implied) (VRE) was 64 mg/L. It also gave an MIC of methicillin (S. aureus; 5518 (EMRSA-1), no plasma) of less than 0.25 mg/L, an MIC of methicillin (S. aureus; 5518 (EMRSA-1), plasma (1%)) of 0.5 mg/L and an MIC of methicillin (S. aureus; LHS77, no plasma) of less than 0.25 mg/L. It also gave an MIC of methicillin (S. aureus; LHS77, plasma (1%)) of less than 0.25 mg/L, an MIC of methicillin (S. aureus; LHS78, no plasma) of less than 0.25 mg/L and an MIC of methicillin (S. aureus; LHS78, plasma (1%)) of 1 mg/L. For the same molecule, the MIC of methicillin (S. aureus; LHS79, no plasma) was less than 0.25 mg/L, the MIC of methicillin (S. aureus; LHS79, plasma (1%)) was 0.25 mg/L and the MIC of methicillin (S. aureus; LHS80, no plasma) was less than 0.25 mg/L. For the same molecule, the MIC of methicillin (S. aureus; LHS80, plasma (1%)) was 0.25 mg/L, the MIC of methicillin (S. aureus; LHS81, no plasma) was less than 0.25 mg/L and the MIC of methicillin (S. aureus; LHS81, plasma (1%)) was less than 0.25 mg/L. For the same molecule, the MIC of methicillin (S. aureus; LHS82, no plasma) was less than 0.25 mg/L, the MIC of methicillin (S. aureus; LHS82, plasma (1%)) was 4 mg/L and the MIC of methicillin (S. aureus; LHS83, no plasma) was less than 0.25 mg/L. It also gave an MIC of methicillin (S. aureus; LHS83, plasma (1%)) of 0.25 mg/L, an MIC of methicillin (S. aureus; LHS84, no plasma) of less than 0.25 mg/L and an MIC of methicillin (S. aureus; LHS84, plasma (1%)) of 2 mg/L. For the same molecule, the MIC of methicillin (S. aureus; LHS85, no plasma) was less than 0.25 mg/L, the MIC of methicillin (S. aureus; LHS85, plasma (1%)) was 0.5 mg/L and the MIC of methicillin (S. aureus; LHS86, no plasma) was less than 0.25 mg/L. For the same molecule, the MIC of methicillin (S. aureus; LHS86, plasma (1%)) was 0.25 mg/L, the MIC of methicillin (S. aureus; LHS87, no plasma) was less than 0.25 mg/L and the MIC of methicillin (S. aureus; LHS87, plasma (1%)) was 4 mg/L. It also gave an MIC of methicillin (S. aureus; LHS88, no plasma) of less than 0.25 mg/L, an MIC of methicillin (S. aureus; LHS88, plasma (1%)) of 0.5 mg/L and an MIC of methicillin (S. aureus; LHS89, no plasma) of less than 0.25 mg/L. It also gave an MIC of methicillin (S. aureus; LHS89, plasma (1%)) of 0.5 mg/L, an MIC of methicillin (S. aureus; LHS90, no plasma) of less than 0.25 mg/L and an MIC of methicillin (S. aureus; LHS90, plasma (1%)) of less than 0.25 mg/L. The MIC of methicillin (S. aureus; LHS91, no plasma) was less than 0.25 mg/L, the MIC of methicillin (S. aureus; LHS91, plasma (1%)) was less than 0.25 mg/L and the MIC of methicillin (S. aureus; LHS92, no plasma) was less than 0.25 mg/L. It also gave an MIC of methicillin (S. aureus; LHS92, plasma (1%)) of 1 mg/L, an MIC of methicillin (S. aureus; LHS93, no plasma) of less than 0.25 mg/L and an MIC of methicillin (S. aureus; LHS93, plasma (1%)) of 0.5 mg/L. The MIC of methicillin (S. aureus; LHS94, no plasma) was less than 0.25 mg/L, the MIC of methicillin (S. aureus; LHS94, plasma (1%)) was 0.5 mg/L and the “effect on methicillin sensitivity of already sensitive bacteria” value (S. aureus; Table 6) was “increases the sensitivity of already sensitive bacteria to methicillin”. For the same molecule, the MIC of vancomycin ([3]; L266 (first line), EMRSA-17 (VISA)) was 2 mg/L, the MIC of vancomycin ([3]; L266 (second line), EMRSA-17 (VISA)) was 1 mg/L and the MIC of vancomycin ([3]; NCTC 12493) was 0.12 mg/L. It also gave an MIC ([3]; MRSA / NCTC 12493, read-out: MIC of teicoplanin, NCTC 12493) of 0.06 mg/L, an MIC ([3]; MRSA, read-out: MIC of teicoplanin, L265, EMRSA-16 (TISA)) of 1 mg/L and an MIC ([3]; MRSA, read-out: MIC of teicoplanin, L266, EMRSA-16 (TISA)) of 2 mg/L.

For NCC(=O)O [Glycine, glycine], the “effect on MIC of methicillin against MRSA” value (MRSA [4]) is given as “reduces the MIC of methicillin against MRSA”.
